Values of other authors as cited in patent publication US12409165B2, “Pharmaceutical composition comprising eltrombopag bis(monoethanolamine)” (SYNTHON B.V., priority 2019, dated 2025).

Columns and labels:
[1] = qualitative statement in the background, no method given
[2] = qualitative statement in the background, no method given; remark: listed apart in the source

- solubility [1]: low
- permeability [2]: medium
SMILES: CC1=NN(c2ccc(C)c(C)c2)C(=O)/C1=N\Nc1cccc(-c2cccc(C(=O)O)c2)c1O.NCCO.NCCO [Eltrombopag bis(monoethanolamine), 3′-{(2Z)-2-[1-(3,4-dimethylphenyl)-3-methyl-5-oxo-1,5-dihydro-4H-pyrazol-4-ylidene]hydrazino}-2′-hydroxy-3-biphenyl-carboxylic acid bis(monoethanolamine)]
